Here are results for 6 compounds from US8993574B2, “Pyrrole antifungal agents” (F2G Ltd, priority 2008, dated 2015).

The structures appear in SMILES notation. Values after ≈ are worked out from the molar mass of the structure shown.

Format in all cases: cell-based
For experiment [1], the system named is Candida parapsilosis. As to the kind of experiment: MIC, RPMI medium. Particulars: 24-48 h at 35° C., >80% growth inhibition, banded into grades; for MIC: Lodderomyces parapsilosis. The method, boiled down: (§1)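 RPMI (2% glucose, 0.135 M MOPS, pH 7.0) microdilution; drug 50-0.05 mg/L doubling series; inoculum 1−2×10^4 cfu/mL; 24-48 h, 35° C; OD485; MIC = lowest conc. with >80% inhibition vs drug-free control.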

Experiment [2] deals with Aspergillus terreus AT49. As to the kind of experiment: MIC, RPMI medium. Particulars: for MIC: Aspergillus terreus, AT49, MIC banded into grades, read-out: MIC grade, A. terreus 49. The method, boiled down: as §1
Experiment [3] relates to Candida tropicalis. In words: MIC, RPMI medium. To be noted: 24-48 h at 35° C., >80% growth inhibition, banded into grades; for MIC: Candida tropicalis. The method, boiled down:
as §1

Experiment [4] deals with Aspergillus fumigatus AF293. As to the kind of experiment: MIC, RPMI medium. Particulars: for MIC: Aspergillus fumigatus, AF293, MIC banded into grades, read-out: MIC grade, A. fumigatus. The method in brief:
as §1

Experiment [5] deals with Candida krusei. As to the kind of experiment: MIC, RPMI medium. To be noted: 24-48 h at 35° C., >80% growth inhibition, banded into grades; for MIC: Pichia kudriavzevii. The method in brief: as §1
Experiment [6] concerns Aspergillus flavus. In words: MIC, RPMI medium. Particulars: MIC banded into grades; for MIC: Aspergillus flavus, read-out: MIC grade, A. flavus. The method in brief: as §1
Experiment [7] concerns Candida albicans. In words: MIC, RPMI medium. Particulars: 24-48 h at 35° C., >80% growth inhibition, banded into grades; for MIC: Candida albicans. The method in brief: as §1
For experiment [8], the system named is Candida glabrata. As to the kind of experiment: MIC, RPMI medium. To be noted: 24-48 h at 35° C., >80% growth inhibition, banded into grades; for MIC: Nakaseomyces glabratus. The method in brief:
as §1

The subject of experiment [9] is Aspergillus fumigatus AF210. In words: MIC, RPMI medium. Particulars: for MIC: Aspergillus fumigatus, AF210, MIC banded into grades, read-out: MIC grade, A. fumigatus 210. The method in brief:
as §1

Experiment [10] has as its system Aspergillus terreus AT4. As to the kind of experiment: MIC, RPMI medium. Particulars: for MIC: Aspergillus terreus, AT4, MIC banded into grades, read-out: MIC grade, A. terreus. The method in brief: as §1
Experiment [11] deals with Aspergillus niger. As to the kind of experiment: MIC, RPMI medium. To be noted: MIC banded into grades; for MIC: Aspergillus niger, read-out: MIC grade, A. niger. The method in brief:
as §1

Experiment [12] relates to Aspergillus terreus AT49. As to the kind of experiment: MIC, YAG medium. Particulars: 24 h at 35° C, MIC banded into grades; for MIC: Aspergillus terreus, read-out: MIC grade, A. terreus 49. The method in brief: (§2)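 Growth inhibition was measured by absorbance at 485 nm following 24 h at 35° C. Spores harvested after 5 days on Sabouraud agar served as inoculum (1−2×10^4 cfu/mL, YAG medium). The lowest drug level producing >70% inhibition was taken as MIC.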

In experiment [13] the test system is Aspergillus fumigatus AF293. In words: MIC, YAG medium. To be noted: 24 h at 35° C, MIC banded into grades; for MIC: Aspergillus fumigatus, read-out: MIC grade, A. fumigatus. The method in brief: as §2
Experiment [14] relates to Aspergillus flavus. As to the kind of experiment: MIC, YAG medium. To be noted: 24 h at 35° C, MIC banded into grades; for MIC: Aspergillus flavus, 24 h, read-out: MIC grade, A. flavus. The method, boiled down:
as §2

Experiment [15] has as its system Aspergillus fumigatus AF210. As to the kind of experiment: MIC, YAG medium. Particulars: 24 h at 35° C, MIC banded into grades; for MIC: Aspergillus fumigatus, read-out: MIC grade, A. fumigatus 210. The method in brief: as §2
The test system of experiment [16] is Aspergillus terreus AT4. In words: MIC, YAG medium. Particulars: 24 h at 35° C, MIC banded into grades; for MIC: Aspergillus terreus, read-out: MIC grade, A. terreus. The method in brief: as §2
Experiment [17] has as its system Aspergillus niger. As to the kind of experiment: MIC, YAG medium. To be noted: 24 h at 35° C, MIC banded into grades; for MIC: Aspergillus niger, read-out: MIC grade, A. niger. The method, boiled down: as §2

Take `COCCn1c(C)cc(-c2ccccc2)c1C(=O)C(=O)Nc1ccc(N2CCN(c3cc(C)cc(C)n3)CC2)cc1` [Example 9, N-{4-[4-(4,6-Dimethyl-pyridin-2-yl)-piperazin-1-yl]-phenyl}-2-[1-(2-methoxy-ethyl)-5-methyl-3-phenyl-1H-pyrrol-2-yl]-2-oxo-acetamide]: the minimal inhibitory concentration (MIC) – broadly, the least concentration at which growth counts as inhibited – in experiment [1] was below 1 µg/mL; in experiment [2], 1 to 10 µg/mL (≈ 1.81 to 18.1 µM); in experiment [3], 1 to 10 µg/mL (≈ 1.81 to 18.1 µM); in experiment [4] it was below 1 µg/mL; in [5], below 1 µg/mL; in experiment [6] it was above 10 µg/mL. The minimal inhibitory concentration (MIC) in [7] was 1 to 10 µg/mL (≈ 1.81 to 18.1 µM); in experiment [8], below 1 µg/mL; in experiment [9], below 1 µg/mL; in experiment [10], 1 to 10 µg/mL (≈ 1.81 to 18.1 µM); in experiment [11], below 1 µg/mL; in experiment [12], below 1 µg/mL. Besides, the minimal inhibitory concentration (MIC) in experiment [13], in experiment [14], in experiment [15], in experiment [16] and in [17] was below 1 µg/mL in each case.
For the compound `COCCn1ccc(-c2ccccc2)c1C(=O)C(=O)Nc1ccc(N2CCN(c3cc(C)cc(C)n3)CC2)cc1` [Example 47, N-{4-[4-(4,6-Dimethyl-pyridin-2-yl)-piperazin-1-yl]-phenyl}-2-[1-(2-methoxy-ethyl)-3-phenyl-1H-pyrrol-2-yl]-2-oxo-acetamide], the minimum inhibitory concentration (MIC) in experiment [1], in [2], in experiment [3], in [4], in [5] and in experiment [6] was 1 to 10 µg/mL (≈ 1.86 to 18.6 µM) each time. The MIC in experiment [7] is 1 to 10 µg/mL (≈ 1.86 to 18.6 µM); in experiment [8], below 1 µg/mL; in [9], 1 to 10 µg/mL (≈ 1.86 to 18.6 µM); in experiment [10] it was 1 to 10 µg/mL (≈ 1.86 to 18.6 µM); in [11] it was 1 to 10 µg/mL (≈ 1.86 to 18.6 µM); in [12], below 1 µg/mL. The MIC in experiment [13] was below 1 µg/mL; in experiment [14] it was below 1 µg/mL; in experiment [15] it was below 1 µg/mL; in experiment [16], 1 to 10 µg/mL (≈ 1.86 to 18.6 µM); in experiment [17], 1 to 10 µg/mL (≈ 1.86 to 18.6 µM).
Turning to `C=C(C)CN1CCN(c2ccc(NC(=O)C(=O)c3c(-c4ccccc4)cc(C)n3CCOC)c(F)c2)CC1` [Example 109, N-{2-Fluoro-4-[4-(2-methyl-allyl)-piperazin-1-yl]-phenyl}-2-[1-(2-methoxy-ethyl)-5-methyl-3-phenyl-1H-pyrrol-2-yl]-2-oxo-acetamide], the MIC in experiment [1] was below 1 µg/mL; in experiment [2], below 1 µg/mL; in experiment [3] it was 1 to 10 µg/mL (≈ 1.93 to 19.3 µM); in [4], below 1 µg/mL; in experiment [5] it was below 1 µg/mL; in [6] it was below 1 µg/mL. Moreover, the minimal inhibitory concentration (MIC) in [7], in experiment [8], in experiment [9], in experiment [10], in [11] and in experiment [12] was below 1 µg/mL each time. For the same compound, the minimal inhibitory concentration (MIC) in [13], in [14], in [15], in experiment [16] and in [17] was below 1 µg/mL throughout.
Regarding `CCOC(=O)Cn1ccc(-c2ccccc2)c1C(=O)C(=O)Nc1ccc(N2CCN(c3cc(C)cc(C)n3)CC2)cc1` [Example 73, (2-{4-[4-(4,6-Dimethyl-pyridin-2-yl)-piperazin-1-yl]-phenylaminooxalyl}-3-phenyl-pyrrol-1-yl)-acetic acid ethyl ester], in experiment [1], the “Candida MIC, C. parapsilosis” value is recorded as 2 (A grade of 2 represents an MIC of from 1 to 10 mg/L). Besides, the figures for the “MIC grade, A. terreus 49” value in experiment [2] (MIC banded into grades) and in experiment [12] were 1 (a grade of 1 represents an MIC of greater than 10 mg/L) and 2 (A grade of 2 represents an MIC of from 1 to 10 mg/L), respectively. In addition, in [3], the “Candida MIC, C. tropicalis” value is reported as 3 (A grade of 3 represents an MIC of less than 1 mg/L). The “MIC grade, A. fumigatus” value in experiment [4] (MIC banded into grades) and in experiment [13] was 3 (A grade of 3 represents an MIC of less than 1 mg/L) in each case. The “Candida MIC, C. krusei” value in [5] is given as 2 (A grade of 2 represents an MIC of from 1 to 10 mg/L). The “MIC grade, A. flavus” value in experiment [6] and in experiment [14] was 1 (a grade of 1 represents an MIC of greater than 10 mg/L) in each case. Further, in experiment [7], the “Candida MIC, C. albicans” value is reported as 2 (A grade of 2 represents an MIC of from 1 to 10 mg/L). Besides, the “Candida MIC, C. glabrata” value in experiment [8] is given as 3 (A grade of 3 represents an MIC of less than 1 mg/L). In addition, the “MIC grade, A. fumigatus 210” value in [9] (MIC banded into grades) and in experiment [15] was 3 (A grade of 3 represents an MIC of less than 1 mg/L) each time. The “MIC grade, A. terreus” value in experiment [10] (MIC banded into grades) and in [16] was 1 (a grade of 1 represents an MIC of greater than 10 mg/L) each time. Also, the “MIC grade, A. niger” value in experiment [11] and in experiment [17] was 3 (A grade of 3 represents an MIC of less than 1 mg/L) each time.
In the case of `COCCn1ccc(-c2ccccc2Cl)c1C(=O)C(=O)Nc1ccc(N2CCN(c3cc(C)cc(C)n3)CC2)cc1` [Example 57, 2-[3-(2-Chloro-phenyl)-1-(2-methoxy-ethyl)-1H-pyrrol-2-yl]-N-{4-[4-(4,6-dimethyl-pyridin-2-yl)-piperazin-1-yl]-phenyl}-2-oxo-acetamide], the minimum inhibitory concentration (MIC) was 1 to 10 µg/mL (≈ 1.75 to 17.5 µM) in [1]; 1 to 10 µg/mL (≈ 1.75 to 17.5 µM) in experiment [2]; 1 to 10 µg/mL (≈ 1.75 to 17.5 µM) in experiment [3]; 1 to 10 µg/mL (≈ 1.75 to 17.5 µM) in experiment [4]; below 1 µg/mL in experiment [5]; above 10 µg/mL in [6]. Moreover, the MIC in experiment [7] was 1 to 10 µg/mL (≈ 1.75 to 17.5 µM); in experiment [8] it was below 1 µg/mL; in [9], 1 to 10 µg/mL (≈ 1.75 to 17.5 µM); in experiment [10], 1 to 10 µg/mL (≈ 1.75 to 17.5 µM); in [11], 1 to 10 µg/mL (≈ 1.75 to 17.5 µM); in [12], below 1 µg/mL. Also, the MIC in experiment [13] was below 1 µg/mL; in [14] it was 1 to 10 µg/mL (≈ 1.75 to 17.5 µM); in [15], below 1 µg/mL; in [16] it was 1 to 10 µg/mL (≈ 1.75 to 17.5 µM); in experiment [17], 1 to 10 µg/mL (≈ 1.75 to 17.5 µM).
`CNC(=O)Cn1ccc(-c2ccccc2)c1C(=O)C(=O)Nc1ccc(N2CCN(c3cc(C)cc(C)n3)CC2)cc1` [Example 76, N-{4-[4-(4,6-Dimethyl-pyridin-2-yl)-piperazin-1-yl]-phenyl}-2-(1-methylcarbamoylmethyl-3-phenyl-1H-pyrrol-2-yl)-2-oxo-acetamide]: the MIC in experiment [1] is below 1 µg/mL; in experiment [2], above 10 µg/mL; in experiment [3], below 1 µg/mL; in experiment [4] it was above 10 µg/mL; in experiment [5] it was below 1 µg/mL; in [6] it was above 10 µg/mL. In addition, the minimum inhibitory concentration (MIC) in experiment [7] was below 1 µg/mL; in experiment [8] it was below 1 µg/mL; in experiment [9], 1 to 10 µg/mL (≈ 1.82 to 18.2 µM); in experiment [10] it was above 10 µg/mL; in experiment [11], above 10 µg/mL; in experiment [12] it was above 10 µg/mL. Moreover, the minimal inhibitory concentration (MIC) in [13] is 1 to 10 µg/mL (≈ 1.82 to 18.2 µM); in experiment [14], above 10 µg/mL; in [15], 1 to 10 µg/mL (≈ 1.82 to 18.2 µM); in [16] it was above 10 µg/mL; in experiment [17], above 10 µg/mL.
